# Measurements: US12337010B2, “Compositions and methods of treatment using nicotinamide mononucleotide” (Washington University, priority 2017, dated 2025)
# What was measured:
# [1] = tested on: various types of primary cells; conditions: NMN co-administered with FK866, compared to NMN in the absence of FK866; cited from earlier work
# [2] = Jejunum NAD+ levels 60 min after oral gavage of NMN; assay type: in vivo, mouse; conditions: 60 min after oral gavage (500 mg/kg), Slc12a8-knockdown mice compared to control mice
# Source text: In vivo Slc12a8 knockdown experiment. To generate shRNA-expressing lentiviral constructs, 56-bp double-stranded oligonucleotides, each of which contains a sense target sequence, a microRNA-based loop sequence ([…]; SEQ ID NO: 4), an antisense sequence, a termination sequence of four thymidines, and appropriate restriction enzyme sites at both ends, were generated for mouse Slc12a8 and firefly luciferase (fLuc) and cloned into the U6-PGK-GFP vector provided by the Viral Vectors Core at Washington University School of Medicine. The sense Slc12a8 sequence is ‘5-[…]-3’ (SEQ ID NO: 5). Lentiviruses were produced as previously described (Satoh, A. et al., Cell Metab., 18, 416-430, 2013). Knockdown efficiency was tested using primary intestinal cultures (Sato, T. & Clevers, H., Methods Mol. Biol. 945, 319-328, 2013). Large-scale lentivirus production was carried on by the Viral Vectors Core at the Hope Center for Neurological Disorders at Washington University. […]
# Lentiviruses carrying control firefly luciferase (fLuc) shRNA and Slc12a8 shRNA were generated as described supra. […] Slc12a8 protein expression levels in control shfLuc lentivirus- and shSlc12a8 lentivirus-infected jejunum and ileum samples were measured through Western blots (FIG. 17). […] Then NAD+ levels were measured by HPLC in these samples (analyzed by ANOVA with Tukey's test).
# Slc12a8 = molecular target: T1, Slc12a8 (Mus musculus, UniProt Q8VI23); assay: Radiolabeled NMN uptake in Slc12a8-OE and control NIH3T3 cells; assay type: cell-based; conditions: Slc12a8-OE NIH3T3 cells, 4 min, 37° C., control background subtracted
# T1 construct: NIH3T3 cells were transfected with 5 μg of pCXN2 carrying the full-length Slc12a8 cDNA (Slc12a8-OE); expressed in transfected cells
# T1 sequence (Q8VI23 1-705): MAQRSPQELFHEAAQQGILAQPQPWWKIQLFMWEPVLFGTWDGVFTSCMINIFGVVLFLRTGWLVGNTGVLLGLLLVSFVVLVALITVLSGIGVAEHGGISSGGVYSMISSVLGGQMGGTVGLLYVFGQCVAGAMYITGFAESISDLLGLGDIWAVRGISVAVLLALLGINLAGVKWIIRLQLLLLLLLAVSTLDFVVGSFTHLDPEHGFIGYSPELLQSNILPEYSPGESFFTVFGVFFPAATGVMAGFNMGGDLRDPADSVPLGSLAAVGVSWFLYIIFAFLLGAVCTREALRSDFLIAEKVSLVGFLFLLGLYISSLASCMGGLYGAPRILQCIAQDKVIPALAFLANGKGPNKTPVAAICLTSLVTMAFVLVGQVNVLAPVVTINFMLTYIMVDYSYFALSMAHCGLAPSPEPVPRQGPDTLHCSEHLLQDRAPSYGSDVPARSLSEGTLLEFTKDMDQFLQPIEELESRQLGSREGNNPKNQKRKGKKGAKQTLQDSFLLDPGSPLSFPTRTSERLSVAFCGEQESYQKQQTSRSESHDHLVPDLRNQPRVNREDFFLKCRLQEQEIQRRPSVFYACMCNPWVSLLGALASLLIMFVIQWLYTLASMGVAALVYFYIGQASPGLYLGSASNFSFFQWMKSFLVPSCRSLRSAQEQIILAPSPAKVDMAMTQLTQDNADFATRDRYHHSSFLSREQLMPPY
# Description: NMN uptake analyses with radiolabeled NMN. Control and Slc12a8-OE NIH3T3 cells were harvested by centrifugation (400×g, 5 min), washed once in HBSS, and incubated at 37° C. in HBSS [pH 7.5] (5×10^6 cells/ml) containing 100 nM 3H-β-Nicotinamide mononucleotide (9 Ci/mmol; Moravek Biochemicals, CA) and unlabeled NMN to make the final concentration 25 μM. At the designated time points (1, 3, 5 and 10 minutes), aliquots of the cells (100 μl) were collected and placed in 1.5-ml microcentrifuge tubes containing silicone-mineral oil (density, 1.015; Sigma-Aldrich) on the top of 2 M potassium hydroxide solution, followed by centrifugation at 16,000×g for 30s. Cells were separated from the buffer and pelleted through the silicone-mineral oil layer. The radioactivity in these cell pellets was determined by a liquid scintillation counter. For calculating Km and Vmax, the same conditions were used as described above, but with various total concentrations of NMN, ranging from 1 μM to 100 μM. At the 4-min time point, 100 μl of cell suspension was collected and pelleted in the same way described above. The radioactivity in cell pellets was determined by a liquid scintillation counter. The radioactivity measured in control NIH3T3 cells was subtracted to calculate Slc12a8-specific NMN uptake in Slc12a8-OE NIH3T3 cells.
# Uptake of NMN was measured as described in methods under “NMN uptake analyses with radiolabeled NMN” using 25 μM ^3H-NMN at 37° C. in control and Slc12a8-OE NIH3T3 cells over 10 min in Hanks' buffer [ph7.5] with Mg2+ and Ca2+ (n=12; analyzed by ANOVA with Sidak's test). […] This Km is qualitatively consistent with a detected range of NMN concentrations in mouse plasma and erythrocytes (Revollo, J. R. et al., Cell Metab., 6, 363-375, 2007; Ramsey, K. M., et al., Science, 324, 651-654, 2009; Yamada, K., et al., Anal. Biochem., 352, 282-285, 2006).
smiles,measurement,setting,value
"NC(=O)c1ccc[n+]([C@@H]2O[C@H](COP(=O)([O-])O)[C@@H](O)[C@H]2O)c1 [NMN, nicotinamide mononucleotide]",NAD+ increase,[1],higher NAD+ increases
same,NAD+ levels in the jejunum,[2],significantly decreased
same,Km,Slc12a8,34.1 ± 8.3 µM
same,Vmax,Slc12a8,11.5 ± 1.2 pmol/min/mg
